Entries after “also recorded” stand apart in the source; their conditions may differ. Read-outs that look alike come from different tables or passages of the source.
Assays:
[1] = target: CPG2 enzyme activity of ScFV anti CEA-CPG2; assay: Spectrophotometric CPG2 enzyme inhibition assay (methotrexate hydrolysis, absorbance at 320 nm); type: biochemical, Psuedomonas; settings: for IC50: methotrexate substrate 60 μM, 37° C., pH 7.3; for inhibition of CPG2 activity (in words): spectrophotometric assay
Description: Enzyme Inhibition Assay Method Used for the Assessment of CP014 as an Inhibitor of CPG2 Activity
The effect that CP014 had on CPG2 activity was measured using a spectrophotometric assay. CP014 was dissolved in assay buffer (0.1 M Tris-HCl buffer at pH 7.3 containing 0.2 mM zinc chloride) to give a concentration of 40 mM. Various aliquots of this solution were added to cuvettes and assay buffer was added to adjust the volume of solution in each cuvette to 900 μL. 100 μL aliquots of 0.6 mM methotrexate solution in assay buffer were added to each cuvette to give a methotrexate substrate concentration of 0.06 mM (60 μM). The range of the concentration of CP014 in the cuvettes was 0-400 μM.
The substrate solutions in the cuvettes were heated to 37° C. in an oven. The cuvettes were then placed in turn in a spectrophotometer which was maintained at 37° C. using a Peltier. The assays were commenced by adding a 10 μL aliquot of fusion protein (ScFV anti CEA-CPG2) solution or CPG2 solution, followed by brief stirring. The hydrolysis of the methotrexate substrate was monitored by measuring the decrease in absorbance at 320 nm.
One unit (1 U) of CPG2 activity is defined as the amount of enzyme which catalyses the hydrolysis of 1 μmol of methotrexate per minute at 37° C. The molar extinction coefficient of methotrexate was taken as 8300 L mol^−1 cm^−1. For each assay a plot of absorbance versus time was created and a straight line was fitted to the data between 0 and 0.2 minutes. The slope of the straight line was then multiplied by minus 12 and the dilution factor of the ScFV anti CEA-CPG2/CPG2 solution to give the enzyme activity in U/mL.
A variation of the assay was to incubate various amounts of CP014 with ScFV anti CEA-CPG2 or CPG for a period of time at 4° C. prior to CPG2 assay. Following this incubation step, a 10 μL aliquot of each mixture was added to a cuvette that contained a 1 mL aliquot of 0.06 mM methotrexate in assay buffer at 37° C. After stirring the contents of the cuvette, the measurement of the decrease in absorbance and subsequent determination of enzyme activity were carried out as described above.
The effectiveness of CP014 in inhibiting CPG2 activity was expressed in terms of its IC50 value, i.e. the half maximal inhibitory concentration. Using GraphPad Prism 5 software, the IC50 value was determined by applying non-linear regression to a plot of enzyme activity versus the logarithm of the CP014 concentration.

[2] = test system: ScFv anti CEA-CPG2 fusion protein; assay: Binding studies using Surface Plasmon Resonance (Biacore), peptide immobilised on CM5 chip; design: species or system Psuedomonas
From the text: Peptide clearing agents of the invention are exemplified herein displaying appropriate kinetics and affinity properties. Such kinetic and affinity properties may be measured using any suitable means. Kinetic and affinity parameters may be derived based upon binding studies using Surface Plasmon Resonance (SPR), which is a well known technique (and commercially available, for example from GE Healthcare—Biacore system). Data obtained using a suitable instrument may be analysed by appropriate software to automatically derive the relevant parameters. An appropriate binding model may be applied by the software to ensure the fit to the curves is as close as possible. A chi2 value of less than 0.2 may be considered an acceptable fit.
Binding Studies Using Surface Plasmon Resonance (SPR)
Peptides were coupled to a CM5 chip using EDC/NHS chemistry as recommended by the manufacturer (GE healthcare). Analytes were made up in HBS-P buffer (0.01 M HEPES pH 7.4, 0.15 M NaCl, 0.005% v/v Surfactant P20) and injected over the surface for 180 seconds at 5 μl/min followed by a dissociation time of 300 seconds. Residual binding was removed using two 10 second injections of regeneration buffer (10 mM CHAPS, 1 mM Guanidinium hydrochloride, 2 M NaCl). Response signals and baselines were checked for consistency throughout the experiment and flow rates of 15 and 75 μl/min were tested to confirm minimal effects due to mass transport.
FIGS. 6a and 6c each show four sensorgrams overlaid. These are the blank-subtracted real time responses from injections of 12.5, 25, 50 and 100 nM ScFVanti-CEA-CPG2 over the chip surface of immobilised CP014 peptide. The data has been fitted using two different algorithms supplied in the BiaCore software (“Biaevaluation”). The first, shown in FIG. 6a, was a 1:1 binding model (Langmuir) and the second, shown in FIG. 6c, was a 2-state reaction fit. Both fits align closely to the normalised sensorgrams. […] In addition, the Chi2 values are 0.154 and 0.0882 respectively and are within the acceptable range (<0.2) for these types of calculation. For both fits the dissociation constant (binding constant KD) was in close agreement at 5 nM and 9 nM, respectively.

ScFV anti CEA-CPG2 = assay: Non-amplified Amplex Red assay for screening of potential CPG2 substrates; type: biochemical, Psuedomonas; settings: for substrate potential for CPG2 (in words): Amplex Red fluorescence, CP014 12.5 and 100 μM, FIG. 10 substrate 12.5 μM
From the text: Non-Amplified Amplex Red Assay for the Screening of Potential CPG2 Substrates
It was established that CP014 is a potential inhibitor of CPG2 activity using a spectrophotometric assay. […] The so-called Amplex Red assay can be used to measure to measure L-glutamate in food samples and continuously monitor glutamate oxidase activity. By eliminating an amplification step in the assay procedure, it was possible to screen compounds as substrates for CPG2. In the modified assay, L-glutamic acid that has been cleaved from a substrate of CPG2 is oxidised by glutamate oxidase to produce α-ketoglutarate, ammonia and hydrogen peroxide. The hydrogen peroxide then reacts with 10-acetyl-3,7-dihydroxyphenoxazine (Amplex Red reagent) in a 1:1 stoichiometry in a reaction catalysed by horseradish peroxidise (HRP) to generate the highly fluorescent product, resorufin.
25 μM and 200 μM solutions of CP014 in assay buffer (0.1 M Tris-HCl buffer at […] containing 0.2 mM zinc chloride), and a 25 μM solution of folic acid in assay buffer were prepared. The Amplex Red reagent mixture was prepared by combining 2.5 μL 10 mM solution of Amplex Red reagent in DMSO, 5 μL HRP solution in assay buffer (100 U/mL), 32 μL L-glutamate oxidase solution in assay buffer (5 U/mL) and 460.5 μL assay buffer solution. ScFV anti CEA-CPG2 fusion protein was diluted appropriately using assay buffer.
A 50 μL aliquot of CP014 solution or 25 μM folic acid solution and a 50 μL aliquot of the Amplex Red reagent mixture were added to a well of a black microtitre plate. The plate was covered, then incubated at 37° C. for 10 minutes. The cover was removed and a 1 μL aliquot of ScFV anti CEA-CPG2 was added. After brief stirring, the plate was placed in a BMG Fluostar Omega plate reader and the fluorescence intensity was monitored over a 245 second period at 5 second intervals. The excitation filter wavelength was set at 544 nm and the emission filter wavelength was set at 590 nm.
When ScFV anti CEA-CPG2 was diluted to a concentration of approximately 2 U/mL, the slope value that was calculated for the 12.5 μM folic acid control assay was approximately 4.0.

Nc1ccc2ccccc2c1C(=O)N[C@@H](CCC(=O)O)C(=O)O [CP006, Amino-Naphthoic Acid (ANA)-Glutamate (Glu)]
IC50 [1]: 88.5 µM
IC50 ([1]; listed as formula I): ~88.5 µM
inhibition of CPG2 activity (in words) [1]: is an inhibitor
affinity for the active site of CPG2 (in words) [2]: nanomolar affinity
substrate potential for CPG2 (in words) (ScFV anti CEA-CPG2): Poor Substrate; also recorded: low substrate activity
substrate potential for CPG2 (in words) (ScFV anti CEA-CPG2; listed as formula I): not acted upon as a substrate

C[C@@H](NC(=O)[C@@H](N)CO[C@H]1OC(CO)[C@H](O)C(O)C1O)C(=O)Nc1ccc2ccccc2c1C(=O)NC(CCC(=O)O)C(=O)O (stereo partly drawn) [CP014]
IC50 [1]: 110 µM
IC50 ([1]; listed as formula II): ~110 µM
inhibition of CPG2 activity (in words) [1]: inhibits CPG2 activity; also recorded: is an inhibitor
affinity for the active site of CPG2 (in words) [2]: nanomolar affinity
KA (equilibrium association constant) ([2]; 1:1 Langmuir fit): 1.98e+08 M⁻¹
Ka (association rate constant) ([2]; 1:1 Langmuir fit): 226000 M⁻¹ s⁻¹
Kd (dissociation rate constant) ([2]; 1:1 Langmuir fit): 0.00114 s⁻¹
Kd ([2]; 1:1 Langmuir fit, read-out: KD (dissociation constant)): 0.00504 µM
Kd ([2]; 1:1 Langmuir fit, read-out: dissociation constant (binding constant KD)): 0.005 µM
K (equilibrium association constant) ([2]; 2 state reaction fit): 1.09e+08 M⁻¹
ka1 ([2]; 2 state reaction fit): 284000 M⁻¹ s⁻¹
ka2 ([2]; 2 state reaction fit): 0.014 s⁻¹
kd1 ([2]; 2 state reaction fit): 0.0258 s⁻¹
kd2 ([2]; 2 state reaction fit): 0.00158 s⁻¹
Kd ([2]; 2 state reaction fit, read-out: dissociation constant (binding constant KD)): 0.009 µM
slope of fluorescence intensity versus time, against negative control (in words) (ScFV anti CEA-CPG2; 12.5 and 100 μM in the plate well): no greater than that of the negative control sample
substrate potential for CPG2 (in words) (ScFV anti CEA-CPG2): not a substrate; also recorded: not altered or used as a substrate; also recorded: not turned over
substrate potential for CPG2 (in words) (ScFV anti CEA-CPG2; listed as formula II): not acted upon as a substrate

Nc1nc2ncc(CNc3ccc(C(=O)N[C@@H](CCC(=O)O)C(=O)O)cc3)nc2c(=O)[nH]1 [Folic acid, reference compound]
slope of fluorescence intensity versus time (ScFV anti CEA-CPG2; 12.5 μM in well, ScFV anti CEA-CPG2 approximately 2 U/mL): approximately 4.0
substrate potential for CPG2 (in words) (ScFV anti CEA-CPG2): positive controls

CN(Cc1cnc2nc(N)nc(N)c2n1)c1ccc(C(=O)N[C@@H](CCC(=O)O)C(=O)O)cc1 [methotrexate, reference compound]
substrate potential for CPG2 (in words) (ScFV anti CEA-CPG2): positive controls

Source: patent US8846861B2, “Peptide clearing agents” (Mologic Ltd, priority 2009, dated 2014)
